Experimental data published in patent publication US12077503B2, “Substituted cyclic amides and their use as herbicides” (FMC CORPORATION, priority 2015, dated 2024).

How the values were obtained:
Assay type in all cases: in vivo
rice (Oryra sativa) = test: Test B flooded paddy test; conditions: Oryza sativa, 250 g ai/ha, Flood; 0 to 100 scale where 0 is no effect and 100 is complete control; read-out: Rice plant response rating
Outline: (§1)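 Flooding to 3 cm over soil accompanied treatment, which consisted of adding compound to the standing water around 2-leaf plants; depth was then maintained. Visual assessment versus controls followed at 13 to 15 d (scale 0–100, 0 meaning no effect).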

[1] = tested on: barnyardgrass (Echinochloa crus-galli); test: Test B flooded paddy test; conditions: Echinochloa crus-galli, 250 g ai/ha, Flood; 0 to 100 scale where 0 is no effect and 100 is complete control; read-out: Barnyardgrass plant response rating
Outline: as §1

[2] = tested on: ducksalad (Heteranthera limosa); test: Test B flooded paddy test; conditions: Heteranthera limosa, 250 g ai/ha, Flood; 0 to 100 scale where 0 is no effect and 100 is complete control; read-out: Ducksalad plant response rating
Outline: as §1

[3] = tested on: sedge, umbrella (small-flower umbrella sedge, Cyperus difformis); test: Test B flooded paddy test; conditions: Cyperus difformis, 250 g ai/ha, Flood; 0 to 100 scale where 0 is no effect and 100 is complete control; read-out: Sedge, Umbrella plant response rating
Outline: as §1

[4] = tested on: barnyardgrass (Echinochloa crus-galli); test: Test A postemergence; conditions: Echinochloa crus-galli, post-emergence, 240 h
Outline: (§2)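 Seeds sprayed preemergence with a directed soil spray, or plants at 2 to 10 cm height and one- to two-leaf stage sprayed postemergence, with test chemicals in a non-phytotoxic solvent mixture containing surfactant, in loam soil–sand blend. Injury rated visually against untreated controls after about 10 d in greenhouse, 0 (no effect) to 100 (complete control).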

Kochia (Kochia scoparia) [5] = test: Test A postemergence; conditions: Bassia scoparia, post-emergence, 240 h
Outline: as §2

[6] = tested on: pigweed (Amaranthus retroflexus); test: Test A postemergence; conditions: Amaranthus retroflexus, post-emergence, 240 h
Outline: as §2

[7] = tested on: ryegrass, Italian (Italian ryegrass, Lolium multiflorum); test: Test A postemergence; conditions: Lolium multiflorum, post-emergence, 240 h
Outline: as §2

[8] = tested on: ragweed (common ragweed, Ambrosia elatior); test: Test A postemergence; conditions: Ambrosia artemisiifolia, post-emergence, 240 h
Outline: as §2

[9] = tested on: giant foxtail (Setaria faberii); test: Test A postemergence; conditions: Setaria faberi, post-emergence, 240 h
Outline: as §2

[10] = tested on: wheat (Triticum aestivum); test: Test A postemergence; conditions: Triticum aestivum, post-emergence, 240 h
Outline: as §2

[11] = tested on: blackgrass (Alopecurus myosuroides); test: Test A postemergence; conditions: Alopecurus myosuroides, post-emergence, 240 h
Outline: as §2

[12] = tested on: Galium (catchweed bedstraw, Galium aparine); test: Test A postemergence; conditions: Galium, post-emergence, 240 h
Outline: as §2

corn (Zea mays) = test: Test A postemergence; conditions: Zea mays, post-emergence, 240 h
Outline: as §2

[13] = tested on: barnyardgrass (Echinochloa crus-galli); test: Test A preemergence; conditions: Echinochloa crus-galli, pre-emergence, 240 h, Preemergence
Outline: as §2

Kochia (Kochia scoparia) [14] = test: Test A preemergence; conditions: Bassia scoparia, pre-emergence, 240 h, 0 to 100 scale where 0 is no effect and 100 is complete control, read-out: Kochia plant response rating
Outline: as §2

[15] = tested on: pigweed (Amaranthus retroflexus); test: Test A preemergence; conditions: Amaranthus retroflexus, pre-emergence, 240 h, 0 to 100 scale where 0 is no effect and 100 is complete control, read-out: Pigweed plant response rating
[16] = tested on: ryegrass, Italian (Italian ryegrass, Lolium multiflorum); test: Test A preemergence; conditions: Lolium multiflorum, pre-emergence, 240 h, 0 to 100 scale where 0 is no effect and 100 is complete control, read-out: Ryegrass, Italian plant response rating
Outline: as §2

[17] = tested on: ragweed (common ragweed, Ambrosia elatior); test: Test A preemergence; conditions: Ambrosia artemisiifolia, pre-emergence, 240 h, 0 to 100 scale where 0 is no effect and 100 is complete control, read-out: Ragweed plant response rating
Outline: as §2

[18] = tested on: giant foxtail (Setaria faberii); test: Test A preemergence; conditions: Setaria faberi, pre-emergence, 240 h, Preemergence
Outline: as §2

[19] = 125 g ai/ha, preemergence, approx. 10 d

## COCc1ccccc1NC(=O)[C@H]1C(=O)N(C)C[C@@H]1c1cccc(C(F)(F)F)c1 (racemic) [Compound 1060]
Rice (Oryra sativa)
  pest or weed control at 250 g/ha: 20%
[1]
  pest or weed control at 250 g/ha: 75%
[2]
  pest or weed control at 250 g/ha: 90%
[3]
  pest or weed control at 250 g/ha: 0%
[4]; 125 g ai/ha, postemergence, visual injury on 0 to 100 scale (0 no effect, 100 complete control), approx. 10 d, read-out: Barnyardgrass plant response rating
  pest or weed control at 125 g/ha: 100%
[4]; Postemergence, 31 g ai/ha, visual injury after approx. 10 d, 0 to 100 scale, 0 no effect, 100 complete control, read-out: Plant response rating, Barnyardgrass
  pest or weed control at 31 g/ha: 90%
Kochia (Kochia scoparia) [5]; 125 g ai/ha, postemergence, visual injury on 0 to 100 scale (0 no effect, 100 complete control), approx. 10 d, read-out: Kochia plant response rating
  pest or weed control at 125 g/ha: 0%
Kochia (Kochia scoparia) [5]; Postemergence, 31 g ai/ha, visual injury after approx. 10 d, 0 to 100 scale, 0 no effect, 100 complete control, read-out: Plant response rating, Kochia
  pest or weed control at 31 g/ha: 0%
[6]; 125 g ai/ha, postemergence, visual injury on 0 to 100 scale (0 no effect, 100 complete control), approx. 10 d, read-out: Pigweed plant response rating
  pest or weed control at 125 g/ha: 0%
[6]; Postemergence, 31 g ai/ha, visual injury after approx. 10 d, 0 to 100 scale, 0 no effect, 100 complete control, read-out: Plant response rating, Pigweed
  pest or weed control at 31 g/ha: 0%
[7]; 125 g ai/ha, postemergence, visual injury on 0 to 100 scale (0 no effect, 100 complete control), approx. 10 d, read-out: Ryegrass, Italian plant response rating
  pest or weed control at 125 g/ha: 50%
[7]; Postemergence, 31 g ai/ha, visual injury after approx. 10 d, 0 to 100 scale, 0 no effect, 100 complete control, read-out: Plant response rating, Ryegrass, Italian
  pest or weed control at 31 g/ha: 50%
[8]; 125 g ai/ha, postemergence, visual injury on 0 to 100 scale (0 no effect, 100 complete control), approx. 10 d, read-out: Ragweed plant response rating
  pest or weed control at 125 g/ha: 30%
[8]; Postemergence, 31 g ai/ha, visual injury after approx. 10 d, 0 to 100 scale, 0 no effect, 100 complete control, read-out: Plant response rating, Ragweed
  pest or weed control at 31 g/ha: 0%
[9]; 125 g ai/ha, postemergence, visual injury on 0 to 100 scale (0 no effect, 100 complete control), approx. 10 d, read-out: Foxtail, Giant plant response rating
  pest or weed control at 125 g/ha: 90%
[9]; Postemergence, 31 g ai/ha, visual injury after approx. 10 d, 0 to 100 scale, 0 no effect, 100 complete control, read-out: Plant response rating, Foxtail, Giant
  pest or weed control at 31 g/ha: 90%
[10]; 125 g ai/ha, postemergence, visual injury on 0 to 100 scale (0 no effect, 100 complete control), approx. 10 d, read-out: Wheat plant response rating
  plant injury at 125 g/ha: 70%
[10]; Postemergence, 31 g ai/ha, visual injury after approx. 10 d, 0 to 100 scale, 0 no effect, 100 complete control, read-out: Plant response rating, Wheat
  plant injury at 31 g/ha: 30%
[11]; 125 g ai/ha, postemergence, visual injury on 0 to 100 scale (0 no effect, 100 complete control), approx. 10 d, read-out: Blackgrass plant response rating
  pest or weed control at 125 g/ha: 60%
[11]; Postemergence, 31 g ai/ha, visual injury after approx. 10 d, 0 to 100 scale, 0 no effect, 100 complete control, read-out: Plant response rating, Blackgrass
  pest or weed control at 31 g/ha: 50%
[12]; 125 g ai/ha, postemergence, visual injury on 0 to 100 scale (0 no effect, 100 complete control), approx. 10 d, read-out: Galium plant response rating
  pest or weed control at 125 g/ha: 40%
[12]; Postemergence, 31 g ai/ha, visual injury after approx. 10 d, 0 to 100 scale, 0 no effect, 100 complete control, read-out: Plant response rating, Galium
  pest or weed control at 31 g/ha: 0%
Corn (Zea mays); 125 g ai/ha, postemergence, visual injury on 0 to 100 scale (0 no effect, 100 complete control), approx. 10 d, read-out: Corn plant response rating
  plant injury at 125 g/ha: 90%
Corn (Zea mays); Postemergence, 31 g ai/ha, visual injury after approx. 10 d, 0 to 100 scale, 0 no effect, 100 complete control
  Corn plant response rating (crop injury, 0 = no effect, 100 = complete kill) at 31 g/ha: 70%
[13]; 125 g ai/ha, visual injury rating after approximately 10 d, read-out: Barnyardgrass plant response rating (0 to 100 scale, 0 is no effect, 100 is complete control)
  pest or weed control at 125 g/ha: 100%
[13]; 31 g ai/ha, 0 to 100 scale (0 no effect, 100 complete control), read-out: Plant response rating, Barnyardgrass
  pest or weed control at 31 g/ha: 90%
Kochia (Kochia scoparia) [14]; 31 g ai/ha, Preemergence
  pest or weed control at 31 g/ha: 0%
Kochia (Kochia scoparia) [14]; [19]
  pest or weed control at 125 g/ha: 0%
[15]; 31 g ai/ha, Preemergence
  pest or weed control at 31 g/ha: 0%
[15]; [19]
  pest or weed control at 125 g/ha: 30%
[16]; 31 g ai/ha, Preemergence
  pest or weed control at 31 g/ha: 50%
[16]; [19]
  pest or weed control at 125 g/ha: 60%
[17]; 31 g ai/ha, Preemergence
  pest or weed control at 31 g/ha: 0%
[17]; [19]
  pest or weed control at 125 g/ha: 30%
[18]; 125 g ai/ha, visual injury rating after approximately 10 d, read-out: Foxtail, Giant plant response rating (0 to 100 scale, 0 is no effect, 100 is complete control)
  pest or weed control at 125 g/ha: 100%
[18]; 31 g ai/ha, 0 to 100 scale (0 no effect, 100 complete control), read-out: Plant response rating, Foxtail, Giant
  pest or weed control at 31 g/ha: 90%
